Our source for the Activity values is ChEMBL document CHEMBL1148055, “Bioactive terpenoids from Octocorallia, I. Bioactive diterpenoids: litophynols A and B from the mucus of the soft coral Litophyton sp” (J Nat Prod, 1994).

This data set is described as follows: Toxicity against rabbit RBC assessed as hemolytic activity after 15 mins. As to conditions: erythrocyte, 0.25 h. The class given is cell-based, Oryctolagus cuniculus.
Turning to `C=C1CC[C@H](C(C)C)[C@@H]2[C@H]1[C@H]1C[C@](C)(O)[C@@H](O)CC[C@@](C)(OC(=O)CCC)[C@@H]2O1` [LITOPHYNIN E], the Activity entry was “Toxic”.

With `C=C1[C@@H]2[C@H]([C@H](C(C)C)C[C@H]1OC(C)=O)[C@@H]1O[C@H]2C[C@](C)(O)[C@H](O)CC[C@@]1(C)OC(=O)CCC` [LITOPHYNIN I MONOACETATE], the Activity entry is recorded as “Toxic”.

For the compound `C=C1CC[C@H](C(C)C)[C@@H]2[C@H]1[C@@H]1O[C@H]2[C@](C)(OC(=O)CCC)CC[C@H](O)C(=C)[C@H]1O` [LITOPHYNOL A], the Activity entry is reported as “Toxic”.

Turning to `C=C1CC[C@H](C(C)C)[C@@H]2[C@H]1[C@@H]1O[C@H]2[C@](C)(OC(=O)CCC)CC[C@H](O)[C@@](C)(O)[C@H]1O` [LITOPHYNOL B], the Activity result is given as “Toxic”.
